Experimental data published in ChEMBL document CHEMBL1201862, “PubChem BioAssay data set” (2004).
The source made the active and inactive calls. Rule as the data show it: actives have a measured IC50 and inactives only a lower limit.

Biological target: Envelope glycoprotein gp160 (Human immunodeficiency virus 1, UniProt Q6QLK5)
Assay: inhibitors of HIV fusion peptide binding, primary screen, biochemical, uHTS, fluorescence dequenching (AID 1986)

Sequence of Envelope glycoprotein gp160 (Q6QLK5 whole entry, the tested form may be a part): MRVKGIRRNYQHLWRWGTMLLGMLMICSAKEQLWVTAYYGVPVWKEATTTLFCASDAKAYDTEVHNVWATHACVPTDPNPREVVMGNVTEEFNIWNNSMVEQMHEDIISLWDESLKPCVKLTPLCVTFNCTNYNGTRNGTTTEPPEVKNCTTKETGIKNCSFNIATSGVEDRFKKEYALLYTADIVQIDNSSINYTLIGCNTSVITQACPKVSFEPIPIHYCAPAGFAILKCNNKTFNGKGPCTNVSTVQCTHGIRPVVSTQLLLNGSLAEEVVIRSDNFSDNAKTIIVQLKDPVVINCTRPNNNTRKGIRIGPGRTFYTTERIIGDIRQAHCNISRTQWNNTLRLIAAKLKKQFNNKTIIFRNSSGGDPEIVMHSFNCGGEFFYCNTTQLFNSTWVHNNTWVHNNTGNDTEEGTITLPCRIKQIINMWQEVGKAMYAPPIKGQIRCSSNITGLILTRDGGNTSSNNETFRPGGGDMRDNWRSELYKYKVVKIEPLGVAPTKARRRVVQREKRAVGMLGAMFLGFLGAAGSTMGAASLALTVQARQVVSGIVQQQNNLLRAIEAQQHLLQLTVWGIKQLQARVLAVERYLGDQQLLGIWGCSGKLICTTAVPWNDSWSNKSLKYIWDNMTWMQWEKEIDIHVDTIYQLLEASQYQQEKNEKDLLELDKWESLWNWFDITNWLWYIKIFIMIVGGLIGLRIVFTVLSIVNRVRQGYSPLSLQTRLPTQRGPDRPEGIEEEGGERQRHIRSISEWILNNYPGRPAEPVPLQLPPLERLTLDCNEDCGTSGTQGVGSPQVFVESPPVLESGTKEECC

O=C1/C(=C2\C(=O)N(Cc3ccc(F)cc3)c3ccccc32)SC(=S)N1CCS(=O)(=O)O
IC50: 15 µM (active)

CCOc1cc(/C=N/NC2=NC(=O)C(CC(=O)O)S2)ccc1OCc1ccc(Cl)cc1 (stereo not drawn)
IC50: 24.6 µM (active)

CCCOc1ccc(C(=O)NNC(=S)NC(=O)c2cc(-c3ccc(Cl)cc3)nc3ccccc23)cc1
IC50: 19.9 µM (active)
